{
  "source": "paper PMC12396409",
  "about": "“Screening and hit evaluation of a microbial metabolite library against the pathogenic Plasmodium falciparum and Toxoplasma gondii parasites” (International Journal for Parasitology: Drugs and Drug …, 2025)",
  "key": {"[1]": {"system": "T. gondii RH strain (RH-Tub-eYFP) tachyzoites", "test": "microbe, parasite or virus in culture", "format": "cell-based, Toxoplasma gondii", "settings": "72 h; for percent parasite growth at 2 µg/mL: Toxoplasma gondii"}, "[2]": {"system": "P. falciparum 3D7 parasites", "test": "P. falciparum growth inhibition assay, 1-cycle (72 h treatment), SYBR DNA staining (library screen at 2 μg/mL and dose-response)", "format": "cell-based, Plasmodium falciparum", "settings": "for activity at 2 µg/mL: Plasmodium falciparum, 3D7"}, "[3]": {"system": "P. falciparum 3D7 parasites", "test": "P. falciparum growth inhibition assay, 2-cycle (120 h treatment), delayed-death screen and dose-response", "format": "cell-based, Plasmodium falciparum", "settings": "for activity at 2 µg/mL: Plasmodium falciparum, 3D7"}, "[4]": {"settings": "T. gondii, screen at 2 μg/mL, replicate 1"}, "[5]": {"settings": "T. gondii, screen at 2 μg/mL, replicate 2"}, "[6]": {"settings": "P. falciparum, 72 h, screen at 2 μg/mL, replicate 1"}, "[7]": {"settings": "P. falciparum, 72 h, screen at 2 μg/mL, replicate 2"}, "[8]": {"settings": "P. falciparum, 120 h, screen at 2 μg/mL, replicate 1"}, "[9]": {"settings": "P. falciparum, 120 h, screen at 2 μg/mL, replicate 2"}, "[10]": {"settings": "T. gondii, parasite screen 2 μg/mL, % growth, replicate 1"}, "[11]": {"settings": "T. gondii, parasite screen 2 μg/mL, % growth, replicate 2"}, "[12]": {"settings": "P. falciparum, 72 h, parasite screen 2 μg/mL, % growth, replicate 1"}, "[13]": {"settings": "P. falciparum, 72 h, parasite screen 2 μg/mL, % growth, replicate 2"}, "[14]": {"settings": "P. falciparum, 120 h, parasite screen 2 μg/mL, % growth, replicate 1"}, "[15]": {"settings": "P. falciparum, 120 h, parasite screen 2 μg/mL, % growth, replicate 2"}},
  "note": "Like-named read-outs stand apart in the source and are kept apart here. Where a SMILES comes first, the peptide text is derived from it. [ ]: non-standard residue; d: D form. dNMeL = CN[C@H](CC(C)C)C(=O)O; Hiv = CC(C)[C@H](O)C(=O)O",
  "data": [
    {"molecule": "CCCNC[C@]1(O)[C@H](C)O[C@@H](O[C@H]2[C@H](C)[C@@H](O[C@@H]3O[C@H](C)C[C@H](N(C)C)[C@H]3O)[C@](C)(O)C[C@@H](C)CN[C@H](C)[C@@H](O)[C@](C)(O)[C@@H](CC)OC(=O)[C@@H]2C)C[C@@]1(C)OC", "note": "[Tulathromycin, reference compound]", "values": [
      {"measurement": "Tg_72h_%Growth_Rep1", "setting": "[1]; [4]", "value": 76.92, "unit": "%"},
      {"measurement": "Tg_72h_%Growth_Rep2", "setting": "[1]; [5]", "value": 80.94, "unit": "%"},
      {"measurement": "1) Growth (%) at 72 h", "setting": "[2]; P. falciparum, 2 μg/mL, 72 h", "value": 33.53, "unit": "%"},
      {"measurement": "Pf_72h_%Growth_Rep1", "setting": "[2]; [6]", "value": 33.36, "unit": "%"},
      {"measurement": "Pf_72h_%Growth_Rep2", "setting": "[2]; [7]", "value": 33.69, "unit": "%"},
      {"measurement": "2) Growth (%) at 120 h", "setting": "[3]; P. falciparum, 2 μg/mL, 120 h", "value": 16.75, "unit": "%"},
      {"measurement": "Pf_120h_%Growth_Rep1", "setting": "[3]; [8]", "value": 21.75, "unit": "%"},
      {"measurement": "Pf_120h_%Growth_Rep2", "setting": "[3]; [9]", "value": 11.74, "unit": "%"},
      {"measurement": "3) Fold change (72 h/120 h)", "setting": "[3]; P. falciparum, growth at 72 h / growth at 120 h, 2 μg/mL", "value": 2.0}
    ]},
    {"molecule": "CCC(C)C1OC2(CCC1C)CC1CC(CC=C(C)C(OC3CC(OC)C(OC4CC(OC)C(O)C(C)O4)C(C)O3)C(C)C=CC=C3COC4C(O)C(C)C=C(C(=O)O1)C34O)O2", "note": "(stereo not drawn) [BIA-I1581]", "values": [
      {"measurement": "Tg_72h_%Growth_Rep1", "setting": "[1]; T. gondii RH, library screen at 2 μg/mL, % growth, replicate 1", "value": 33.19, "unit": "%"},
      {"measurement": "Tg_72h_%Growth_Rep2", "setting": "[1]; T. gondii RH, library screen at 2 μg/mL, % growth, replicate 2", "value": 43.03, "unit": "%"},
      {"measurement": "Pf_72h_%Growth_Rep1", "setting": "[2]; P. falciparum 3D7, 72 h, library screen at 2 μg/mL, % growth, replicate 1", "value": 5.59, "unit": "%"},
      {"measurement": "Pf_72h_%Growth_Rep2", "setting": "[2]; P. falciparum 3D7, 72 h, library screen at 2 μg/mL, % growth, replicate 2", "value": 2.07, "unit": "%"},
      {"measurement": "Pf_120h_%Growth_Rep1", "setting": "[3]; P. falciparum 3D7, 120 h, library screen at 2 μg/mL, % growth, replicate 1", "value": 16.87, "unit": "%"},
      {"measurement": "Pf_120h_%Growth_Rep2", "setting": "[3]; P. falciparum 3D7, 120 h, library screen at 2 μg/mL, % growth, replicate 2", "value": 11.19, "unit": "%"}
    ]},
    {"molecule": "CC(=O)N[C@H](CO)[C@H](O)c1ccc([N+](=O)[O-])cc1", "note": "[Corynecin I]", "values": [
      {"measurement": "Tg_72h_%Growth_Rep1", "setting": "[1]; [4]", "value": 123.69, "unit": "%"},
      {"measurement": "Tg_72h_%Growth_Rep2", "setting": "[1]; [5]", "value": 87.57, "unit": "%"},
      {"measurement": "Pf_72h_%Growth_Rep1", "setting": "[2]; [6]", "value": 83.09, "unit": "%"},
      {"measurement": "Pf_72h_%Growth_Rep2", "setting": "[2]; [7]", "value": 83.78, "unit": "%"},
      {"measurement": "Pf_120h_%Growth_Rep1", "setting": "[3]; [8]", "value": 83.28, "unit": "%"},
      {"measurement": "Pf_120h_%Growth_Rep2", "setting": "[3]; [9]", "value": 82.34, "unit": "%"}
    ]},
    {"molecule": "CC(C)C[C@@H]1NC(=O)[C@H](C(C)C)NC(=O)[C@H](C(C)C)OC(=O)[C@@H](CC(C)C)N(C)C(=O)[C@@H](C(C)C)NC(=O)[C@H](C(C)C)OC1=O", "note": "[Sporidesmolide I] (cyclo([Hiv]VL[Hiv][dV][dNMeL]))", "values": [
      {"measurement": "Tg_72h_%Growth_Rep1", "setting": "[1]; [10]", "value": 147.37, "unit": "%"},
      {"measurement": "Tg_72h_%Growth_Rep2", "setting": "[1]; [11]", "value": 92.68, "unit": "%"},
      {"measurement": "Pf_72h_%Growth_Rep1", "setting": "[2]; [12]", "value": 86.99, "unit": "%"},
      {"measurement": "Pf_72h_%Growth_Rep2", "setting": "[2]; [13]", "value": 89.18, "unit": "%"},
      {"measurement": "Pf_120h_%Growth_Rep1", "setting": "[3]; [14]", "value": 103.89, "unit": "%"},
      {"measurement": "Pf_120h_%Growth_Rep2", "setting": "[3]; [15]", "value": 100.78, "unit": "%"}
    ]},
    {"molecule": "CO[C@@H]1[C@H](N(C)C(=O)c2ccccc2)C[C@H]2O[C@]1(C)n1c3ccccc3c3c4c(c5c6ccccc6n2c5c31)C(=O)NC4=O", "note": "[Stauprimide]", "values": [
      {"measurement": "Tg_72h_%Growth_Rep1", "setting": "[1]; [10]", "value": 9.90, "unit": "%"},
      {"measurement": "Tg_72h_%Growth_Rep2", "setting": "[1]; [11]", "value": 20.75, "unit": "%"},
      {"measurement": "Pf_72h_%Growth_Rep1", "setting": "[2]; [12]", "value": 1.11, "unit": "%"},
      {"measurement": "Pf_72h_%Growth_Rep2", "setting": "[2]; [13]", "value": -9.03, "unit": "%"},
      {"measurement": "Pf_120h_%Growth_Rep1", "setting": "[3]; [14]", "value": 32.82, "unit": "%"},
      {"measurement": "Pf_120h_%Growth_Rep2", "setting": "[3]; [15]", "value": 11.28, "unit": "%"}
    ]},
    {"molecule": "Cc1cc(O)c2c(c1)C(=O)C13C(=C2O)C(=O)C2C(O)C1C1C(O)C3C(=O)C3=C(O)c4c(O)cc(C)cc4C(=O)C321", "note": "(stereo not drawn) [Rugulosin + form]", "values": [
      {"measurement": "Tg_72h_%Growth_Rep1", "setting": "[1]; [10]", "value": 114.00, "unit": "%"},
      {"measurement": "Tg_72h_%Growth_Rep2", "setting": "[1]; [11]", "value": 82.13, "unit": "%"},
      {"measurement": "Pf_72h_%Growth_Rep1", "setting": "[2]; [12]", "value": 87.73, "unit": "%"},
      {"measurement": "Pf_72h_%Growth_Rep2", "setting": "[2]; [13]", "value": 120.80, "unit": "%"},
      {"measurement": "Pf_120h_%Growth_Rep1", "setting": "[3]; [14]", "value": 82.55, "unit": "%"},
      {"measurement": "Pf_120h_%Growth_Rep2", "setting": "[3]; [15]", "value": 131.94, "unit": "%"}
    ]},
    {"molecule": "CC(C)C[C@H](NC(=O)[C@@H](O)[C@H](N)Cc1ccccc1)C(=O)O", "note": "[Bestatin]", "values": [
      {"measurement": "percent parasite growth at 2 µg/mL", "setting": "[1]; library screen at 2 μg/mL, % growth, replicate 1, read-out: Tg_72h_%Growth_Rep1", "value": 89.8, "unit": "%"},
      {"measurement": "percent parasite growth at 2 µg/mL", "setting": "[1]; library screen at 2 μg/mL, % growth, replicate 2, read-out: Tg_72h_%Growth_Rep2", "value": 102, "unit": "%"},
      {"measurement": "activity at 2 µg/mL", "setting": "[2]; library screen at 2 μg/mL, 72 h, % growth, replicate 1, read-out: Pf_72h_%Growth_Rep1", "value": 10.9, "unit": "%"},
      {"measurement": "activity at 2 µg/mL", "setting": "[2]; library screen at 2 μg/mL, 72 h, % growth, replicate 2, read-out: Pf_72h_%Growth_Rep2", "value": 3.89, "unit": "%"},
      {"measurement": "activity at 2 µg/mL", "setting": "[3]; library screen at 2 μg/mL, 120 h, % growth, replicate 1, read-out: Pf_120h_%Growth_Rep1", "value": 3.72, "unit": "%"},
      {"measurement": "activity at 2 µg/mL", "setting": "[3]; library screen at 2 μg/mL, 120 h, % growth, replicate 2, read-out: Pf_120h_%Growth_Rep2", "value": 8.03, "unit": "%"}
    ]},
    {"molecule": "O=C(O)CC[N+](=O)[O-]", "note": "[BIA-N1694]", "values": [
      {"measurement": "Tg_72h_%Growth_Rep1", "setting": "[1]; T. gondii, parasite screen at 2 μg/mL, % growth, replicate 1", "value": 133.03, "unit": "%"},
      {"measurement": "Tg_72h_%Growth_Rep2", "setting": "[1]; T. gondii, parasite screen at 2 μg/mL, % growth, replicate 2", "value": 105.32, "unit": "%"},
      {"measurement": "Pf_72h_%Growth_Rep1", "setting": "[2]; P. falciparum 3D7, 72 h, parasite screen at 2 μg/mL, % growth, replicate 1", "value": 75.60, "unit": "%"},
      {"measurement": "Pf_72h_%Growth_Rep2", "setting": "[2]; P. falciparum 3D7, 72 h, parasite screen at 2 μg/mL, % growth, replicate 2", "value": 92.27, "unit": "%"},
      {"measurement": "Pf_120h_%Growth_Rep1", "setting": "[3]; P. falciparum 3D7, 120 h, parasite screen at 2 μg/mL, % growth, replicate 1", "value": 78.14, "unit": "%"},
      {"measurement": "Pf_120h_%Growth_Rep2", "setting": "[3]; P. falciparum 3D7, 120 h, parasite screen at 2 μg/mL, % growth, replicate 2", "value": 7.96, "unit": "%"}
    ]}
  ]
}
